Source: ChEMBL document CHEMBL2380247, “Synthesis and biological evaluation of novel aliphatic amido-quaternary ammonium salts for anticancer chemotherapy: part II” (2013)
Active and inactive are the calls of the source. The rule behind the calls is not given here.

Columns and labels:
PC-3 [1] = test: Antiproliferative activity against human PC3 cells at 10 uM by SRB assay; type: functional
NUGC-3 [2] = test: Antiproliferative activity against human NUGC3 cells at 1 uM by SRB assay; type: functional
ACHN [3] = test: Antiproliferative activity against human ACHN cells at 0.1 uM by SRB assay; type: functional
NUGC-3 [4] = test: Antiproliferative activity against human NUGC3 cells at 0.1 uM by SRB assay; type: functional
NUGC-3 [5] = test: Antiproliferative activity against human NUGC3 cells at 3 uM by SRB assay; type: functional
NUGC-3 [6] = test: Antiproliferative activity against human NUGC3 cells at 10 uM by SRB assay; type: functional
ACHN [7] = test: Antiproliferative activity against human ACHN cells at 0.3 uM by SRB assay; type: functional
ACHN [8] = test: Antiproliferative activity against human ACHN cells at 10 uM by SRB assay; type: functional
NCI-H23 [9] = test: Antiproliferative activity against human NCI-H23 cells at 0.1 uM by SRB assay; type: functional
NUGC-3 [10] = test: Antiproliferative activity against human NUGC3 cells at 0.3 uM by SRB assay; type: functional
MDA-MB-231 [11] = test: Antiproliferative activity against human MDA-MB-231 cells at 0.3 uM by SRB assay; type: functional
MDA-MB-231 [12] = test: Antiproliferative activity against human MDA-MB-231 cells at 3 uM by SRB assay; type: functional
MDA-MB-231 [13] = test: Antiproliferative activity against human MDA-MB-231 cells by SRB assay; type: functional
HCT-15 [14] = test: Antiproliferative activity against human HCT15 cells at 1 uM by SRB assay; type: functional
HCT-15 [15] = test: Antiproliferative activity against human HCT15 cells at 0.1 uM by SRB assay; type: functional
NCI-H23 [16] = test: Antiproliferative activity against human NCI-H23 cells at 3 uM by SRB assay; type: functional
PC-3 [17] = test: Antiproliferative activity against human PC3 cells at 3 uM by SRB assay; type: functional
ACHN [18] = test: Antiproliferative activity against human ACHN cells at 3 uM by SRB assay; type: functional
PC-3 [19] = test: Antiproliferative activity against human PC3 cells at 0.3 uM by SRB assay; type: functional
NCI-H23 [20] = test: Antiproliferative activity against human NCI-H23 cells by SRB assay; type: functional
HCT-15 [21] = test: Antiproliferative activity against human HCT15 cells at 0.3 uM by SRB assay; type: functional
HCT-15 [22] = test: Antiproliferative activity against human HCT15 cells at 3 uM by SRB assay; type: functional
[23] = molecular target: Rho-related GTP-binding protein RhoB (Homo sapiens) (UniProt P62745); test: Inhibition of RhoB transactivation in human HeLa cells by luciferase reporter assay; type: cell-based
HCT-15 [24] = test: Antiproliferative activity against human HCT15 cells by SRB assay; type: functional
NCI-H23 [25] = test: Antiproliferative activity against human NCI-H23 cells at 0.3 uM by SRB assay; type: functional
MDA-MB-231 [26] = test: Antiproliferative activity against human MDA-MB-231 cells at 10 uM by SRB assay; type: functional
[27] = molecular target: Rho-related GTP-binding protein RhoB (Homo sapiens) (UniProt P62745); test: Transactivation of RhoB in human HeLa cells by luciferase reporter assay; type: cell-based
PC-3 [28] = test: Antiproliferative activity against human PC3 cells at 1 uM by SRB assay; type: functional
MDA-MB-231 [29] = test: Antiproliferative activity against human MDA-MB-231 cells at 0.1 uM by SRB assay; type: functional
NUGC-3 [30] = test: Antiproliferative activity against human NUGC3 cells by SRB assay; type: functional
ACHN [31] = test: Antiproliferative activity against human ACHN cells by SRB assay; type: functional
PC-3 [32] = test: Antiproliferative activity against human PC3 cells by SRB assay; type: functional
HCT-15 [33] = test: Antiproliferative activity against human HCT15 cells at 10 uM by SRB assay; type: functional
NCI-H23 [34] = test: Antiproliferative activity against human NCI-H23 cells at 10 uM by SRB assay; type: functional
ACHN [35] = test: Antiproliferative activity against human ACHN cells at 1 uM by SRB assay; type: functional
MDA-MB-231 [36] = test: Antiproliferative activity against human MDA-MB-231 cells at 1 uM by SRB assay; type: functional
PC-3 [37] = test: Antiproliferative activity against human PC3 cells at 0.1 uM by SRB assay; type: functional
NCI-H23 [38] = test: Antiproliferative activity against human NCI-H23 cells at 1 uM by SRB assay; type: functional

Rho-related GTP-binding protein RhoB (Homo sapiens), sequence (P62745 whole entry): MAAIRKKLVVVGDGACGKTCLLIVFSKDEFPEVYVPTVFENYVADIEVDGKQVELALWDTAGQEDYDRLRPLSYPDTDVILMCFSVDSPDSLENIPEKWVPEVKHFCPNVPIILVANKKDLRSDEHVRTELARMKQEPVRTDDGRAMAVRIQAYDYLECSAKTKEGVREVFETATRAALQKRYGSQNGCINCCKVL

SMILES | growth, % of control at 10 µM (PC-3 [1]) | growth, % of control at 1 µM (NUGC-3 [2]) | growth, % of control at 0.1 µM (ACHN [3]) | growth, % of control at 0.1 µM (NUGC-3 [4]) | growth, % of control at 3 µM (NUGC-3 [5]) | growth, % of control at 10 µM (NUGC-3 [6]) | growth, % of control at 0.3 µM (ACHN [7]) | growth, % of control at 10 µM (ACHN [8]) | growth, % of control at 0.1 µM (NCI-H23 [9]) | growth, % of control at 0.3 µM (NUGC-3 [10]) | growth, % of control at 0.3 µM (MDA-MB-231 [11]) | growth, % of control at 3 µM (MDA-MB-231 [12]) | GI50 (MDA-MB-231 [13]) | growth, % of control at 1 µM (HCT-15 [14]) | growth, % of control at 0.1 µM (HCT-15 [15]) | growth, % of control at 3 µM (NCI-H23 [16]) | growth, % of control at 3 µM (PC-3 [17]) | growth, % of control at 3 µM (ACHN [18]) | growth, % of control at 0.3 µM (PC-3 [19]) | GI50 (NCI-H23 [20]) | other results
CCCCCCCCCCCCCCCCCC(=O)N(C)CC[N+](C)(C)C | -11.6% | 10.4% | 81.8% | 77.9% | 2.4% | -18.7% | 71.3% | -15.6% | 94.3% | 49% | 84.2% | 37% | 1070 nM | 61.4% | 92.9% | 51.6% | 1.1% | 23.4% | 91.9% | 1520 nM | growth, % of control at 0.3 µM (HCT-15 [21]): 98.6%; growth, % of control at 3 µM (HCT-15 [22]): 25.4%; inhibition [23]: Active; GI50 (HCT-15 [24]): 800 nM; growth, % of control at 0.3 µM (NCI-H23 [25]): 90.2%; growth, % of control at 10 µM (MDA-MB-231 [26]): 12.8%; Activity [27]: Active; growth, % of control at 1 µM (PC-3 [28]): 39.3%; growth, % of control at 0.1 µM (MDA-MB-231 [29]): 90.6%; GI50 (NUGC-3 [30]): 140 nM; GI50 (ACHN [31]): 360 nM; GI50 (PC-3 [32]): 420 nM; growth, % of control at 10 µM (HCT-15 [33]): 20.5%; growth, % of control at 10 µM (NCI-H23 [34]): 11.1%; growth, % of control at 1 µM (ACHN [35]): 44.6%; growth, % of control at 1 µM (MDA-MB-231 [36]): 77.2%; growth, % of control at 0.1 µM (PC-3 [37]): 93.2%; growth, % of control at 1 µM (NCI-H23 [38]): 84.4%
CCCCCCCCCCCCCCCC(=O)N(C)CCC[N+](C)(C)C | -16.5% | 4.68% | 91.6% | 97% | -31.9% | -38.4% | 86.8% | 1.49% | 98.7% | 68% | 96.1% | 46.6% | 1420 nM | 82.7% | 98.7% | 33.7% | 0.07% | 39.5% | 108% | 960 nM | growth, % of control at 0.3 µM (HCT-15 [21]): 99.1%; growth, % of control at 3 µM (HCT-15 [22]): 54%; GI50 (HCT-15 [24]): 1980 nM; growth, % of control at 0.3 µM (NCI-H23 [25]): 99.2%; growth, % of control at 10 µM (MDA-MB-231 [26]): 21.7%; Activity [27]: Active; growth, % of control at 1 µM (PC-3 [28]): 47.2%; growth, % of control at 0.1 µM (MDA-MB-231 [29]): 97.7%; GI50 (NUGC-3 [30]): 190 nM; GI50 (ACHN [31]): 760 nM; GI50 (PC-3 [32]): 490 nM; growth, % of control at 10 µM (HCT-15 [33]): 29.6%; growth, % of control at 10 µM (NCI-H23 [34]): -14.1%; growth, % of control at 1 µM (ACHN [35]): 58.9%; growth, % of control at 1 µM (MDA-MB-231 [36]): 76.6%; growth, % of control at 0.1 µM (PC-3 [37]): 106%; growth, % of control at 1 µM (NCI-H23 [38]): 76.5%
CCCCCCCCCCCCCCCCCC(=O)NCC(C)(C)C[N+](C)(C)C | -47% | 46.7% | 86.5% | 79.4% | 17.7% | 26.4% | 79.6% | 45.8% | 97.1% | 72.3% | 78.8% | 41.6% | 1210 nM | 81.1% | 97.1% | 47.4% | -38.6% | 43.5% | 76.1% | 1710 nM | growth, % of control at 0.3 µM (HCT-15 [21]): 91.8%; growth, % of control at 3 µM (HCT-15 [22]): 46%; GI50 (HCT-15 [24]): 1730 nM; growth, % of control at 0.3 µM (NCI-H23 [25]): 95.3%; growth, % of control at 10 µM (MDA-MB-231 [26]): 26.8%; Activity [27]: Active; growth, % of control at 1 µM (PC-3 [28]): 11.9%; growth, % of control at 0.1 µM (MDA-MB-231 [29]): 78.5%; GI50 (NUGC-3 [30]): 450 nM; GI50 (ACHN [31]): 2300 nM; GI50 (PC-3 [32]): 240 nM; growth, % of control at 10 µM (HCT-15 [33]): 27.5%; growth, % of control at 10 µM (NCI-H23 [34]): 21.5%; growth, % of control at 1 µM (ACHN [35]): 71.3%; growth, % of control at 1 µM (MDA-MB-231 [36]): 70.9%; growth, % of control at 0.1 µM (PC-3 [37]): 84.1%; growth, % of control at 1 µM (NCI-H23 [38]): 86.3%
CCCCCCCCCCCCCC(=O)N(C)CCC[N+](C)(C)C | -4.36% | 35.7% | 81.1% | 85.1% | 23.3% | 13.7% | 82.2% | 21.2% | 97.3% | 70.3% | 98.7% | 54.6% | 1780 nM | 82.6% | 88% | 8.98% | -1.93% | 41.2% | 87.1% | 560 nM | growth, % of control at 0.3 µM (HCT-15 [21]): 90.9%; growth, % of control at 3 µM (HCT-15 [22]): 62%; GI50 (HCT-15 [24]): 1720 nM; growth, % of control at 0.3 µM (NCI-H23 [25]): 99.1%; growth, % of control at 10 µM (MDA-MB-231 [26]): 23.8%; Activity [27]: Active; growth, % of control at 1 µM (PC-3 [28]): 32.1%; growth, % of control at 0.1 µM (MDA-MB-231 [29]): 95.2%; GI50 (NUGC-3 [30]): 320 nM; GI50 (ACHN [31]): 1010 nM; GI50 (PC-3 [32]): 320 nM; growth, % of control at 10 µM (HCT-15 [33]): 16.5%; growth, % of control at 10 µM (NCI-H23 [34]): -5.73%; growth, % of control at 1 µM (ACHN [35]): 72.4%; growth, % of control at 1 µM (MDA-MB-231 [36]): 88.9%; growth, % of control at 0.1 µM (PC-3 [37]): 86.7%; growth, % of control at 1 µM (NCI-H23 [38]): 61.8%
